Source: article PMC8584265, “Stress Driven Discovery of Natural Products From Actinobacteria with Anti-Oxidant and Cytotoxic Activities Including Docking and ADMET Properties” (International Journal of Molecular Sciences, 2021)
Values after ≈ are worked out from the molar mass of the structure shown. Read-outs that look alike come from different tables or passages of the source.

Key:
blood lymphocytes = experiment: Comet assay (genotoxicity); type: cell-based
Procedure: To evaluate toxicity, blood lymphocytes were treated with 10 and 20 µg/mL MVL samples, 20 µg/mL EMS (positive), 1% DMSO in PBS (negative control), and comet assay was performed. The slides were envisioned under a fluorescent microscope, and the extent of DNA damage was evaluated by analyzing the photomicrographs via CASP 1.2.3.b image analysis. Analysis of 50–100 cells from each sample was performed to assess comet length, head length, tail length, tail moment, DNA content in the head, and tail of lymphocytes. […] The tail length (18.5 ± 1.4 µm) of EMS-treated DNA clearly indicates the production of nicks in nuclear content, representing a greater extent of genotoxicity. […]

[1] = tested on: prostate cancer cells (PC3); experiment: MTT cytotoxicity assay; type: cell-based; conditions: Homo sapiens
Procedure: MTT assay was used to assess cytotoxicity against the human prostate PC3 cell line. […] PC3 cells were cultured in a humidified CO2 incubator at 37 °C in complete growth medium RPMI 1640 enriched with 2.2 g/L NaHCO3, 100 µg/mL streptomycin sulfate, 10% v/v heat-inactivated fetal bovine serum (HIFBS), […] amphotericin B, and 100 IU/mL penicillin G sodium. 20 µL of a compound in 1% DMSO in PBS and 180 µL of PC3 cancer cells were combined in a 96-well plate to reach a final concentration of 20 µg/mL for evaluating the cytotoxicity on PC3 cancer cells. The cells were loaded at an assay density of 1 × 10^4 cells/mL. The plate was incubated in humidified 5% CO2 at 37 °C for 24 h, 48 h, and 72 h. Cabazitaxel was utilized as a positive control, and 1 percent DMSO in PBS was employed as a negative control. Cabazitaxel was procured from Enzo life sciences, Fisher Scientific (Thermo Fisher Scientific, California, USA) CAS-183133-96-2 (ENZCHM2170010). A stock solution (4 mg/mL) of Cabazitaxel was prepared in DMSO and diluted in 1× PBS to make it 1% DMSO. Then serial dilutions of the standard compound were prepared in such a way that wells received 50, 25, 12.5, 6.25, and 3.12 µg/mL of Cabazitaxel with ≤1% DMSO. After that, 20 µL of pre-filter sterilized MTT solution was added to plates and incubated at 37 °C for 4 h in a CO2 incubator. Colored formazan crystals were detached by deliberately removing the supernatant and dissolved in 100 µL of DMSO with absorbance measured at 540 nm using Elx 800 microplate reader. Cytotoxicity was calculated using the following formula:% cytotoxicity = [100−(As/Ac × 100)] (1) where As and Ac show the absorbance of sample and negative control, respectively. Cytotoxicity was calculated with GraphPad Prism 5 software.

[2] = DPPH radical scavenging assay; type: biochemical; conditions: for inhibition of free radical (DPPH): 100 µg/mL; for IC50 DPPH Scavenging: mean ± SD, triplicate
Procedure: (§1) To evaluate the antioxidant potential of the stress compound, a multifaceted antioxidant evaluation of a stress compound was performed via DPPH scavenging assay, OH● radical scavenging assay, NO scavenging assay, and Iron chelating assay by following pre-described protocols.

NO scavenging assay = type: biochemical; conditions: for IC50 NO Inhibition: mean ± SD, triplicate
Procedure: as §1

Iron chelating assay = type: biochemical; conditions: for IC50 Iron Chelation: mean ± SD, triplicate
Procedure: as §1

[3] = OH● radical scavenging assay; type: biochemical; conditions: for inhibition of OH● radicals: 100 µg/mL; for IC50 OH● Inhibition: mean ± SD, triplicate
Procedure: as §1

BCL-2 = experiment: Western blot expression analysis in PC3 cells; type: cell-based, human; conditions: PC3, 0, 5 and 10 µg/mL, 48 h
Procedure: (§2) To unveil the possible mechanistic reason behind the anti-proliferation of cancer cell colonies in MTT assays, expression analysis of apoptotic proteins P53, BCL-2 and BAX were assessed via western blot technique (Figure 6). GAPDH served as a loading control. Prostate cancer cells (PC3) were treated with compound MVL at three concentrations (0, 5, and 10 µg/mL) for 48 h. Protein (40–60 µg) from protein lysate was segregated and probed with specified monoclonal antibodies.
(§3) Figure 6 Western blot analysis of proteins associated with MVL induced apoptosis. Prostate cancer cells, PC3 were treated with MVL at a concentration of 0, 5, and 10 µg/mL for 48 h. […] GAPDH was used as a loading control. Fold change in P-53, BAX, and BCL-2 expression after treating for 48 h with different concentrations of MVL. Means with different superscripts (^a–c) indicate significant (p < 0.001) difference in fold change between groups.
(§4) PC3 cells were cultured in a T75 flask (1 × 10^6/flask). After 48 h, cells were treated with […]. Following treatment, media was aspirated and cells were washed with cold PBS whose pH was maintained at 7.4 trypsinized and pelleted in 15 mL falcon tubes, and cold lysis buffer was added to the pellet. Protein extraction and western blot analysis were done by following the protocol described previously.

BAX = experiment: Western blot expression analysis in PC3 cells; type: cell-based, human; conditions: PC3, 0, 5 and 10 µg/mL, 48 h
Procedure: as §2, §3, §4

P53 = experiment: Western blot expression analysis in PC3 cells; type: cell-based, human; conditions: PC3, 0, 5 and 10 µg/mL, 48 h
Procedure: as §2, §3, §4

PC3 cells = experiment: In vitro scratch (cell migration) assay; type: cell-based, human; conditions: PC3, 10 µg/mL, 24 h treatment; control 16.62 ± 4.4%
Procedure: Stress compound MVL was tested for cell migration of PC3 using an established in vitro scratch test for 24 h. MVL (10 µg/mL) appeared to induce a significant reduction in cell migration at 12 and 24 h treatment of PC3. This was estimated by comparing the scratch area at every observation time as a percentage of control at 0 h. The area of scratch at 24 h treatment with MVL was recorded as 61.10 ± 5.2% compared to control (16.62 ± 4.4%) (Figure 5).
Figure 5 In vitro scratch assay on MVL treated prostate cancer cells. PC3 cells were plated in 6-well plates and scratched at the full confluence. […] Reduction in the area of the scratch was Photographed using Olympus CKX41 microscope and measured using ImageJ software. Data is mean ± SEM percent area of scratch in triplicate at ***: p < 0.001 and ****: p < 0.0001.
In vitro wounds were induced by a modified protocol described, and the scratch assay was performed on cells to study the effect of stress compound on cell migration. In the growth medium of 24-well plates, […] were injected at a density of 5 × 10^4 cells/well. After achieving about 100% proliferation, the cells were shifted to the basal media for 24 h. […] Images were recorded instantly after being wounded and then again portrayed at 0, 12, and 24 h time points. Using Image J software, cell migration rates were quantified by measuring the wound area change (pixels).

Row | SMILES | % DNA in Head (blood lymphocytes; 20 µg/mL) | % DNA in Tail (blood lymphocytes; 20 µg/mL) | Comet Length (blood lymphocytes; 20 µg/mL) | Head Length (blood lymphocytes; 20 µg/mL) | Tail Length (blood lymphocytes; 20 µg/mL) | Tail Moment (blood lymphocytes; 20 µg/mL) | IC50 ([1]; 24 h, read-out: IC50 24 h) | IC50 ([1]; 48 h, read-out: IC50 48 h) | IC50 ([1]; 72 h, read-out: IC50 72 h) | inhibition of free radical (DPPH) [2] | IC50 DPPH Scavenging [2] | inhibition of NO free radicals (NO scavenging assay) | IC50 NO Inhibition (NO scavenging assay) | iron chelation capacity (Iron chelating assay) | IC50 Iron Chelation (Iron chelating assay) | inhibition of OH● radicals [3] | IC50 OH● Inhibition [3] | also measured
1 | CCOS(C)(=O)=O [EMS, Ethyl methane sulfonate, reference compound] | 56.6 ± 3.5% | 43.4 ± 1.8 ^¥ % | 42.6 ± 3.6 µm | 24.1 ± 2.7 µm | 18.5 ± 1.4 µm | 1.37 ± 0.11 ^¥ µm | – | – | – | – | – | – | – | – | – | – | – | –
2 | CO[C@H]1C(=O)[C@]2(C)[C@@H](OC)C[C@H]3OC[C@@]3(OC(C)=O)[C@H]2[C@H](OC(=O)c2ccccc2)[C@]2(O)C[C@H](OC(=O)[C@H](O)[C@@H](NC(=O)OC(C)(C)C)c3ccccc3)C(C)=C1C2(C)C [Cabazitaxel, reference compound] | – | – | – | – | – | – | 21.2 ± 5.1 µg/mL (≈ 25.3 µM) | 15.1 ± 5.7 µg/mL (≈ 18.1 µM) | 9.25 ± 3.4 µg/mL (≈ 11.1 µM) | – | – | – | – | – | – | – | – | –
3 | O=C1O[C@H]([C@@H](O)CO)C(O)=C1O [Ascorbic acid, reference compound] | – | – | – | – | – | – | – | – | – | 84.23 ± 2.9% | 6.52 ± 4.92 µg/mL (≈ 37 µM) | 81.69 ± 2.69% | 8.44 ± 4.17 µg/mL (≈ 47.9 µM) | – | – | – | – | –
4 | O=C(O)CN(CCN(CC(=O)O)CC(=O)O)CC(=O)O [EDTA, reference compound] | – | – | – | – | – | – | – | – | – | – | – | – | – | 81.52 ± 4.67% | 10.20 ± 6.54 µg/mL (≈ 34.9 µM) | – | – | –
5 | O=C(O)c1cc(O)c(O)c(O)c1 [Gallic acid, reference compound] | – | – | – | – | – | – | – | – | – | – | – | – | – | – | – | 83.15 ± 3.67% | 6.26 ± 6.39 µg/mL (≈ 36.8 µM) | –
6 | CC1=CC(=O)OCC1 [MVL, anhydromevalonolactone] | 80.6 ± 1.8% | 19.4 ± 2.6 ^β, ¥ % | 41.4 ± 2.4 µm | 31.7 ± 1.8 µm | 8.5 ± 1.3 µm | 0.24 ± 0.03 ^β, ¥ µm | 35.8 ± 4.2 µg/mL (≈ 319 µM) | 23.3 ± 3.8 µg/mL (≈ 208 µM) | 16.2 ± 6.5 µg/mL (≈ 145 µM) | 78.18 ± 4.2% | 19.65 ± 5.7 µg/mL (≈ 175 µM) | 80.05 ± 3.88% | 15.49 ± 4.8 µg/mL (≈ 138 µM) | 70.96 ± 5.79% | 19.38 ± 7.11 µg/mL (≈ 173 µM) | 72.69 ± 4.93% | 19.65 ± 5.22 µg/mL (≈ 175 µM) | % DNA in Head (blood lymphocytes; 10 µg/mL): 86.1 ± 2.8%; % DNA in Tail (blood lymphocytes; 10 µg/mL): 13.9 ± 1.8 ^β %; Comet Length (blood lymphocytes; 10 µg/mL): 42.6 ± 3.1 µm; Head Length (blood lymphocytes; 10 µg/mL): 36.7 ± 2.5 µm; Tail Length (blood lymphocytes; 10 µg/mL): 5.9 ± 0.3 µm; Tail Moment (blood lymphocytes; 10 µg/mL): 0.11 ± 0.03 ^β µm; BCL-2 protein expression (BCL-2): downregulation; BAX protein expression (BAX): upregulation; P53 protein expression (P53): upregulation; area of scratch as percentage of control at 0 h (PC3 cells): 61.10 ± 5.2%
